# Like-named read-outs stand apart in the source and are kept apart here.
# Columns and labels:
# pERK in Hela cells = test: Phospho-ERK (p-ERK) assay in Hela cells; assay type: cell-based; settings: Homo sapiens, β-actin normalized
# Experimental: This Example illustrates that exemplary compounds of the present invention prevent KRas-mediated GTP nucleotide exchange mediated by SOS1 to inhibit KRas activity, thereby inhibiting the generation of the downstream effector pERK.
# Hela cells (23,000/w) were seeded in a black clear flat bottom 96-well cell culture plate (Corning, #3904) and incubated at 37° C. overnight. At day 2, cells were dosed with compounds of Formula (I) with a 10 μM starting concentration and serially diluted 3× for a total of 9 concentrations. The cells were incubated for 1 hour with the compounds solubilized in DMSO at 37° C. Cells were immediately fixed by adding 100 μL of 8% formaldehyde to all wells in a fume hood and the plates were incubated for 1 hr at room temperature. The formaldehyde was discarded from the plates and washed 5 times and each time for 5 min with 200 μL of Triton Washing Solution (0.1% Triton in PBS) each time to permeabilize the cells. Cells were then blocked with 150 μL of Odyssey blocking buffer (LI-COR Biosciences #927-50010) at room temperature on a shaker. The blocking buffer was discarded and 50 μL of primary antibodies pERK (cell signaling Technology #4370; Rabbit, 1:500) and β-actin (AF5001; Mouse, 1:2000) diluted in Odyssey blocking buffer was added. The plates were incubated overnight at 4° C. on a shaker.
# On day 3, the primary antibody solution was removed. Each plate was washed 5× times with 200 μL of 1×PBST (PBS+0.1% Tween 20) and incubated with 50 μL of secondary antibodies: Anti-Rabbit (LI-COR Biosciences #926-32211) and Anti-Mouse (LI-COR Biosciences #68070) at 1:1000 dilution in Odyssey blocking buffer at room temperature on a shaker for 1 hour (protected from light). The secondary antibody solution as removed and each plate was washed with PBST 5× times. Any liquid remaining was discarded and the plate was imaged using the Licor Odyssey machine according to the manufacturer's instruction, using a set focus length at 3.5 mm and both 800 nm and 700 nm filters. The 3-actin normalized scan values for each well were divided by the average of vehicle wells to get the % of p-ERK inhibition. The IC50 values were then calculated with the Graph pad Prism software. In general, p-ERK IC50 data are in line with the PPI IC50 data.
# [1] = target: KRAS-G12C/SOS1 interaction (Homo sapiens (Human), UniProt Q07889); test: Protein-Protein Interaction (PPI) assay, SOS1-KRAS binding assay kit (HTRF)
# Experimental: This Example illustrates that exemplary compounds of the present invention blockade the interaction of SOS1 to KRAS protein.
# The ability of a compound of Formula (I) to block the interaction of SOS1 to KRAS was measured using a SOS1-KRAS binding assay kit (CAT #63ADK000CB16PEG, Cisbio). Utilizing HTRF (Homogeneous Time-resolved Fluorescence) technology, the assay enables simple and rapid characterization of compound and antibody blockers in a high throughput format. The interaction between Tag1-SOS1 and Tag2-KRAS-G12C is detected by using anti-Tag1-Terbium antibody (HTRF donor) and anti-Tag2-XL665 antibody (HTRF acceptor). When the donor and acceptor antibodies are brought into close proximity due to SOS1 and KRAS-G12C binding, excitation of the donor antibody triggers fluorescent resonance energy transfer (FRET) towards the acceptor antibody, which in turn emits specifically at 665 nm. This specific signal is directly proportional to the extent of KRAS-G12C/SOS1 interaction.
# The assay was carried according to the manufacturer's instructions. Compounds at an initial concentration of 10 mM in DMSO were first serially diluted on a 384-well plate using assay buffer at a ratio of 1:3 for a total of 9 concentrations with each of a volume of 20 μL. Blank buffer was included as the negative control. The final compound solution was in the buffer solution with 1% DMSO. Then, in each well of a 384-well plate, a solution of 2 μL compound solution, 4 μL tagged SOS1 and KRAS (G12C) protein stocks, respectively, and 10 μM GTP was incubated for 15 min. 10 μL mixture of […] antibody and anti-Tag1-Terbium antibody was introduced to each individual well. After 2 hours incubation at room temperature, fluorescence readout was measured with a Pelkin Elmer multiple plate reader VICTOR Nivo.
# Excitation was from over a range of 245-395 nm, and emission from the donor (emission 1) was detected at […] and emission from the acceptor (emission 2) was detected at (606.5-623.5) nm. The HTRF ratio was calculated using the formula: (emission 1 @665 nm/emission 2 @620 nm)×10000. Thus, compounds blocking KRAS-G12C/SOS1 interaction will cause a reduction in HTRF signal ratio. The IC50 values were then calculated with the Graph pad Prism software.
# KRAS-G12C/SOS1 interaction, sequence (Q07889 whole entry, stated change not applied): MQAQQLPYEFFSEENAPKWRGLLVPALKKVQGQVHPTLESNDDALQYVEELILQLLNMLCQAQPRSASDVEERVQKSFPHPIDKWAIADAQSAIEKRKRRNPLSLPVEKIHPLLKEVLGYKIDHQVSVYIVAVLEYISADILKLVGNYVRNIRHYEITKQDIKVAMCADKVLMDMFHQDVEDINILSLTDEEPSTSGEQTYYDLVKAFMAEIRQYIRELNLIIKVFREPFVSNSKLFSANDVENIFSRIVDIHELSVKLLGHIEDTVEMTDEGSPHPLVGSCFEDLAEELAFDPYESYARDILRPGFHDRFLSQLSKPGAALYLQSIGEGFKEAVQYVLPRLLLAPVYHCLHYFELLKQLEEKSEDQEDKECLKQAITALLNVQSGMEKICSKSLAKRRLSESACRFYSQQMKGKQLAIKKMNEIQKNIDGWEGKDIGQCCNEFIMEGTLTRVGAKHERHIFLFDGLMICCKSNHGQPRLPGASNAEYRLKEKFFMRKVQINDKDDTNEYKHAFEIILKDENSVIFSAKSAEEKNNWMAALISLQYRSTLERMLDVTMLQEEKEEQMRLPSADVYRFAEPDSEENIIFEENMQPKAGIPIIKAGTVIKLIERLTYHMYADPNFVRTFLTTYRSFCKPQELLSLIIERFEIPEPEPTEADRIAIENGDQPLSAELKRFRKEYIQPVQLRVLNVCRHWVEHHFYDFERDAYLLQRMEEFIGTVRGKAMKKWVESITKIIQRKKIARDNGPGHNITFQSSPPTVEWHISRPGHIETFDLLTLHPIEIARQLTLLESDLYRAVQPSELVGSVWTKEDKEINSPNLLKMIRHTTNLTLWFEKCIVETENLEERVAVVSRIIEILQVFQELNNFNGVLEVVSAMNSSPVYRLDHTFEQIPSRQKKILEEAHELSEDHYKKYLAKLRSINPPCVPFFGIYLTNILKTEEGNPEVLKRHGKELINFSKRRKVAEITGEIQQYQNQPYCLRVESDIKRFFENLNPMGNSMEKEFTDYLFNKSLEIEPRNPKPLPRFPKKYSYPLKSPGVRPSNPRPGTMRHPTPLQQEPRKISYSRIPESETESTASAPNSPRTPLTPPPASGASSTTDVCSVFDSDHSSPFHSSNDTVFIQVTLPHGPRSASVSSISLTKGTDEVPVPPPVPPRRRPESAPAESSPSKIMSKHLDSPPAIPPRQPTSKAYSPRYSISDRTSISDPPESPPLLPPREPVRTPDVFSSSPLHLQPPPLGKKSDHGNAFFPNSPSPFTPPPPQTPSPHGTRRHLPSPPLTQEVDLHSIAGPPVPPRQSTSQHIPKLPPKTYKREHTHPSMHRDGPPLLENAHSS
IC50 [1] [nM],IC50 ([1]; read-out: PPI Assay IC50) [nM],SMILES,"IC50 (pERK in Hela cells; Table 2, 1 hour with compound) [nM]","IC50 (pERK in Hela cells; Table 1, 1 hour with compound) [nM]"
,< 100,Cc1nc(N[C@H](C)c2cccc(C(F)F)c2F)c2cc(C(=O)N3CCN(CCO)CC3)c3ncnn3c2n1 [Example 23],,> 100
,< 100,Cc1nc(N[C@H](C)c2cccc(C(F)F)c2F)c2cc(C(=O)N3CCN(C4COC4)CC3)c3ncnn3c2n1 [Example 24],,> 100
,< 100,"CC(=O)NC1(c2cc3c(N[C@H](C)c4cccc(C(F)F)c4F)ncnc3n3cnnc23)CCN(C(C)=O)CC1 [Example 134, (R)—N-(1-acetyl-4-(4-((1-(3-(difluoromethyl)-2-fluorophenyl)ethyl)amino)-[1,2,4]triazolo[4′,3′:1,6]pyrido[2,3-d]pyrimidin-6-yl)piperidin-4-yl)acetamide]",,
,< 100,Cc1nc(N[C@H](C)c2cccc(C(F)F)c2F)c2cc(C3CCSCC3)c3nncn3c2n1 [Example 138],,
,< 100,CC(=O)N1CCC(c2cc3c(N[C@H](C)c4cccc(C(F)F)c4F)nc(C)nc3n3cnnc23)CC1(C)C (stereo partly drawn) [Example 139],,
> 100,,CC(=O)N1CCC(c2cc3c(N[C@H](C)c4cccc(C(F)F)c4F)nc(C)nc3n3c(C)nnc23)CC1 [Example 141],,
,< 100,Cc1nc(N[C@H](C)c2cccc(C(F)F)c2F)c2cc(C3CCN(S(C)(=O)=O)CC3)c3nnnn3c2n1 [Example 143],,
,< 100,COCC(=O)N1CCC(c2cc3c(N[C@H](C)c4cccc(C(F)F)c4F)nc(C)nc3n3nnnc23)CC1 [Example 144],,

# Continued, molecule first:
SMILES,IC50 [1] [nM],IC50 ([1]; read-out: PPI Assay IC50) [nM],"IC50 (pERK in Hela cells; Table 2, 1 hour with compound) [nM]","IC50 (pERK in Hela cells; Table 1, 1 hour with compound) [nM]"
"CCOC(=O)c1cc2c(N[C@H](C)c3cc(N)cc(C(F)(F)F)c3)nc(C)nc2n2ncnc12 [Example 1, Ethyl (R)-6-((1-(3-amino-5-(trifluoromethyl)phenyl)ethyl)amino)-8-methyl-[1,2,4]triazolo[1′,5′:1,6]pyrido[2,3-d]pyrimidine-4-carboxylate]",> 100,,> 100,
"Cc1nc(N[C@H](C)c2cc(N)cc(C(F)(F)F)c2)c2cc(C(=O)N3CCOCC3)c3ncnn3c2n1 [Example 2, (R)-(6-((1-(3-amino-5-(trifluoromethyl)phenyl)ethyl)amino)-8-methyl-[1,2,4]triazolo[1′,5′:1,6]pyrido[2,3-d]pyrimidin-4-yl)(morpholino)methanone]",,< 100,,> 100
Cc1nc(N[C@H](C)c2cc(N)cc(C(F)(F)F)c2)c2cc(C(=O)N3CCN(C)CC3)c3ncnn3c2n1 [Example 3],,< 100,,< 100
COCCN1CCN(C(=O)c2cc3c(N[C@H](C)c4cc(N)cc(C(F)(F)F)c4)nc(C)nc3n3ncnc23)CC1 [Example 4],,< 100,,> 100
Cc1nc(N[C@H](C)c2cc(N)cc(C(F)(F)F)c2)c2cc(C(=O)N3CCN(CCO)CC3)c3ncnn3c2n1 [Example 5],,< 100,,> 100
Cc1nc(N[C@H](C)c2cc(N)cc(C(F)(F)F)c2)c2cc(C(=O)N3CC4(COC4)C3)c3ncnn3c2n1 [Example 6],,< 100,,< 100
Cc1nc(N[C@H](C)c2cccc(C(F)F)c2F)c2cc(C(=O)N3CCOCC3)c3ncnn3c2n1 [Example 11],,< 100,,> 100
Cc1nc(N[C@H](C)c2cccc(C(F)F)c2F)c2cc(C(=O)N3[C@@H](C)COC[C@@H]3C)c3ncnn3c2n1 [Example 13],,< 100,,< 100
Cc1nc(N[C@H](C)c2cccc(C(F)F)c2F)c2cc(C(=O)N3CCSCC3)c3ncnn3c2n1 [Example 17],,< 100,,> 100
Cc1nc(N[C@H](C)c2cccc(C(F)F)c2F)c2cc(C(=O)N3CCS(=O)(=O)CC3)c3ncnn3c2n1 [Example 18],,< 100,,> 100
Cc1nc(N[C@H](C)c2cccc(C(F)F)c2F)c2cc(C(=O)N3CCN(C)CC3)c3ncnn3c2n1 [Example 19],,< 100,,> 100
CC(=O)N1CCN(C(=O)c2cc3c(N[C@H](C)c4cccc(C(F)F)c4F)nc(C)nc3n3ncnc23)CC1 [Example 20],,< 100,,> 100
Cc1nc(N[C@H](C)c2cccc(C(F)F)c2F)c2cc(C(=O)N3CCN(C(=O)N(C)C)CC3)c3ncnn3c2n1 [Example 21],,< 100,,> 100
